Measured values published in patent publication US20230117155A1, “FRACTION EXTRACT OF MELISSA OFFICINALIS LEAVES AND NOVEL PHARMACEUTICAL COMPOSITION INCLUDING SAME” (priority 2020, published 2023).
Entries after “also recorded” stand apart in the source; their conditions may differ.

Test system: HUVECs (human umbilical vein endothelial cells)
Assay: HUVEC tube formation, angiogenesis inhibitory activity assay
Type: cell-based
Conditions: single ingredient, final concentration 50 μg/ml; FIG. 9
Method: A 48-well plate was coated with 200 μl of 10% matrigel, and incubated at 4° C. After 4 hours the temperature was raised to 37° C., and 1 hour later, the test substances listed in Tables 2 and 3 below were added to a final concentration of 50 μg/ml, and then 5×10^4 HUVECs (human umbilical vein endothelial cells) were added to each well, and pictures were taken the next day.

SMILES	angiogenesis inhibitory activity in HUVEC tube formation assay
O=C(O)/C=C/c1ccc(O)c(O)c1 [caffeic acid]	angiogenesis inhibitory activities
COC(=O)[C@@H](Cc1ccc(O)c(O)c1)OC(=O)/C=C/c1ccc(O)c(O)c1 [RME, Rosmarinic acid methyl ester]	angiogenesis inhibitory activities
CCOC(=O)Cc1ccc(O)c(O)c1 [EDPA, Ethyl 2-(3,4-dihydroxyphenyl) acetate]	angiogenesis inhibitory activities; also recorded: highest angiogenesis inhibitory activity
O=C(/C=C/c1ccc(O)c(O)c1)O[C@H](Cc1ccc(O)c(O)c1)C(=O)O [Rosmarinic acid]	angiogenesis inhibitory activities
